Results: patent US11628186B2, “Method and composition for the reduction of viral replication, duration and spread of the COVID-19 and the flu” (priority 2017, dated 2023)
Like-named read-outs stand apart in the source and are kept apart here.

Columns and labels:
[1] = tested on: patients with lung diseases including COPD; assay: Comparison of inhaled salts of pyruvate, 5 ml of 0.5 mM solution (Table I); conditions: for FEV1: 5 mls of a 0.5 mM pyruvate inhalation solution in COPD and asthmatic patients
Procedure: All previous studies using pyruvate to treat Allergic Rhinitis, Asthmatic and COPD patients used only the sodium salt form of pyruvic acid in saline. The drug products that were tested in the six Phase I/II clinical trial were differing concentrations of sodium pyruvate dissolved in 0.9% sodium chloride solution (Saline). These drug products contained 0.5 mM, 1.5 mM, or 5.0 mM of sodium pyruvate in physiological saline. They were administered to normal volunteers and COPD and asthmatics by inhalation therapy. […] Various sodium pyruvate solutions were evaluated in the lungs for their ability to enhance FEV1 values and reduce coughing, and lung tightness.
The amount of the salts delivered in the 5 ml's of the 0.5 mM pyruvate solutions were compared to the amounts of the salts in 5 ml's of human blood. […] When ethyl pyruvate reacts with oxygen radical like hydrogen peroxide, it is converted to ethane and alcohol and Co2 and acetate. Ethane and alcohol are lung irritants.
This formula can also be made by adding 3% calcium phosphate or dicalcium phosphate to the standard 0.5 mM to 30 mM sodium pyruvate saline solution see Table I.

[2] = tested on: patients with sinus & lung diseases including IPF and COPD; assay: Salts of pyruvate as 20 mM nasal sprays (Table IX)
Source text: They never tested the individual salts for their ability to reduce inflammation or increase lung functions.

[3] = tested on: patients with lung diseases including COPD; assay: Comparison of inhaled salts of pyruvate, 5 ml of 5 mM solution (Table II)
[4] = tested on: non-cancerous cells; assay: Viable non-cancerous cells after incubation with anticancer drugs in various media (Table VIII); format: cell-based; parameters: viability: concentration or dose not given beside the values; conditions: for Percentage of viable cells after incubation with drugs: drug alone
Procedure: (§1) Peripheral blood monocytes and U937 monocytic leukemia tumor cells were placed in sterile culture flasks and maintained in culture using Dulbecco's Minimal Essential Medium, with 10% fetal calf serum, supplemented with 2 mM glutamine and Pen/Strep. The cytotoxicity of the cytotoxic agent on the cells was analyzed by propidium iodide exclusion techniques and flow cytometric quantitation. Viability of the cells was quantified as the number of cells that excluded the vital dye trypan blue. Sodium pyruvate was dissolved in distilled water and the solution was adjusted to pH 7.4 with calcium, phosphate and magnesium. Solutions were sterile filtered. Stock solutions were prepared so that the vehicle would not be more than 1% of the total volume of the culture media. H-Thymidine Radiosotopic Incorporation Measurement of Cytotoxity. The membrane surfactant enhancers agents (sodium pyruvate and calcium, phosphate and magnesium), was examined for their ability to decrease the Cytotoxity of Doxorubicin to U937 monocytic leukemia cells and normal peripheral blood monocytes. […] Susceptibility studies were conducted to determine the optimal treatment time of the cells with the […] agents prior to treatment of the cells with the cytotoxic agent. The normal cells and U937 leukemic tumor cells were pretreated separately in “wash out” studies with the single agents alone, and in combination, at the optimal concentration described above for various time periods, washed with fresh medium to remove the agents, and treated with the cytotoxic agent. The co-culture of normal and U937 leukemic […] cells was treated essentially in the same manner except that the cells were not treated separately, but co-cultured. […] The cells were then placed in culture medium without the protective agents. […] Normal and U937 tumor cells were co-cultured and the Cytotoxity of Doxorubicin on the cells was determined by viability assays which examined the differential ability of the cytoprotective compositions alone, and in combinations, to protect the normal cells from the Cytotoxity of the chemotherapeutic agent. The cells were isolated and examined for morphological evidence of cytotoxicity or prevention of cytotoxicity. […] DNA synthesis studies using 3Hthymidine (1 uCi/well) were carried out 4 hours prior to termination of the experiment to determine the effect of the formulations on the proliferation of the cells as a measure of the prevention of cytotoxicity and the extent of Doxorubicin-induced cytotoxicity. Propidium iodide exclusion analysis was carried out for direct quantitation of the cytotoxicity and the prevention of cytotoxicity. Each set of studies was performed in triplicate so that statistical analysis of the significant differences between the treatment groups could be conducted. […] Wash-out studies were conducted to determine viability of the peripheral blood monocytes co-cultured with U937 monocytic leukemia cells after 24 hour pretreatment of the cells with the surfactant enhancer, which is also a mitochondrial protective agent, followed by administration of Doxorubicin.

[5] = as above; format: cell-based; parameters: viability: concentration or dose not given beside the values; conditions: non-cancerous cells (normal peripheral blood monocytes)
Procedure: as §1

[6] = 5 ml of 0.5 mM solution in physiological saline, inhaled
[7] = 5 ml of 0.5 mM solution, inhaled
[8] = 5 ml of 0.5 mM solution, 1 most negative, 10 best
[9] = 20 mM (0.22%) nasal spray, 1 most negative, 10 best
[10] = 5 ml of 5 mM solution in saline, inhaled
[11] = 5 ml of 5 mM solution, 1 most negative, 10 best
[12] = Drugs in commercial formula with sodium chloride only
[13] = Drugs in commercial formula with sodium pyruvate with calcium & phosphate & Magnesium ions repeat study
[14] = Drugs in commercial formula with sodium pyruvate with calcium & phosphate & magnesium ions
[15] = Drugs in commercial formula with sodium pyruvate without calcium & phosphate & magnesium
[16] = 5 mls of a 0.5 mM inhalation solution
[17] = 20 mM (0.22%) nasal spray in 0.9% sodium chloride

| Molecule | Increased in FEV-1% lung function [1, 6] [%] | Irritation [1, 7] | Percentage Increase in SaO2 over baseline [1, 7] | Percentage decrease or increase of Nitric Oxide over baseline [1, 7] | Relief of congestion, coughing and lung tightness [1, 7] | Overall Rating 1-10 [1, 8] | Overall Rating 1-10 [2, 9] | Increased in FEV-1% ([2]; in vivo) [%] | Percentage Increase in SaO2 over baseline ([2]; in vivo) | Percentage increase of Nitric Oxide over baseline ([2]; in vivo) [%] | Relief of congestion, coughing and lung tightness ([2]; in vivo) | Increased in FEV-1% [3, 10] [%] | Irritation ([3]; 5 ml of 5 mM solution, inhaled) | Percentage Increase in SaO2 over baseline ([3]; 5 ml of 5 mM solution, inhaled) | Percentage increase of Nitric Oxide over baseline ([3]; 5 ml of 5 mM solution, inhaled) [%] | Relief of congestion, coughing and lung tightness ([3]; 5 ml of 5 mM solution, inhaled) | Overall Rating 1-10 [3, 11] | Percentage of viable non-cancerous cells [4, 12] [%] | Percentage of viable cells after incubation with drugs [4] [%] | reduction of nitric oxide [1, 16] | other results |
| --- | --- | --- | --- | --- | --- | --- | --- | --- | --- | --- | --- | --- | --- | --- | --- | --- | --- | --- | --- | --- | --- |
| CC(=O)C(=O)[O-].[K+] [Potassium, potassium pyruvate] | 8.0 | None | no | −14% | 5 | 7 | 6 | 6.1 | no | 10.0 | 5 | 2.1 | None | no | 25.0 | 5 | 7 | – | – | – | FEV1 [1]: lower FEV1 results; Irritation ([2]; in vivo): None |
| Bleomycin | – | – | – | – | – | – | – | – | – | – | – | – | – | – | – | – | – | 33 | 31 | – | Percentage of viable non-cancerous cells [4, 13]: 98%; Percentage of viable non-cancerous cells [4, 14]: 98%; Percentage of viable non-cancerous cells [4, 15]: 47% |
| O=P(O)(O)O [Potassium Phosphate, reference compound] | – | – | – | – | – | – | – | 0.0 | No | 0 | 4 | – | – | – | – | – | – | – | – | – | Increased in FEV-1% lung function ([1]; in vivo): 0%; Overall Rating 1-10 ([1]; in vivo): 3; Percentage Increase in SaO2 over baseline ([1]; in vivo): No; Percentage decrease or increase of Nitric Oxide over baseline ([1]; in vivo): 0%; Relief of congestion, coughing and lung tightness ([1]; in vivo): 4; Overall Rating 1-10 ([2]; in vivo): 3; Increased in FEV-1% ([3]; in vivo): 0%; Overall Rating 1-10 ([3]; in vivo): 3; Percentage Increase in SaO2 over baseline ([3]; in vivo): No; Percentage increase of Nitric Oxide over baseline ([3]; in vivo): 0%; Relief of congestion, coughing and lung tightness ([3]; in vivo): 4 |
| manganese pyruvate | 3.0 | – | No | −2.0% | 4 | 3 | 3 | – | – | – | – | 3.0 | – | No | 25.0 | 4 | 3 | – | – | did not reduce nitric oxide | Increased in FEV-1% [2, 17]: 0.0%; Percentage Increase in SaO2 over baseline [2, 17]: No; Percentage increase of Nitric Oxide over baseline [2, 17]: 2.0%; Relief of congestion, coughing and lung tightness [2, 17]: 4 |
| zinc pyruvate | 8.0 | Yes | No | +10% | 4 | 4 | 3 | 1.0 | No | 2.0 | 4 | 1.0 | Yes | No | 22.0 | 4 | 3 | – | – | did not reduce nitric oxide | increased nitric oxide levels [1, 16]: 10%; Irritation ([1]; inhaled into the lungs): irritating; Irritation ([2]; in vivo): Yes |
| O=C1[O][Pt]2([NH][C@@H]3CCCC[C@H]3[NH]2)[O]C1=O [oxaliplatin] | – | – | – | – | – | – | – | – | – | – | – | – | – | – | – | – | – | 24 | 23 | – | Percentage of viable non-cancerous cells [4, 13]: 98%; Percentage of viable non-cancerous cells [4, 14]: 95%; Percentage of viable non-cancerous cells [4, 15]: 41% |
| aluminum pyruvate | 0 | – | No | +8.0% | 1 | 3 | 1 | – | – | – | – | 0 | – | No | 15.0 | 1 | 4 | – | – | did not reduce nitric oxide | Increased in FEV-1% [2, 17]: 0.0%; Percentage Increase in SaO2 over baseline [2, 17]: No; Percentage increase of Nitric Oxide over baseline [2, 17]: 00.0%; Relief of congestion, coughing and lung tightness [2, 17]: 1 |
| CN(Cc1cnc2nc(N)nc(N)c2n1)c1ccc(C(=O)N[C@@H](CCC(=O)O)C(=O)O)cc1 [methotrexate] | – | – | – | – | – | – | – | – | – | – | – | – | – | – | – | – | – | – | – | – | viability ([5]; Drugs in commercial formula with sodium chloride only, read-out: Percentage of viable non-cancerous cells): 43%; viability ([5]; Drugs in commercial formula with sodium pyruvate with calcium & phosphate & Magnesium ions repeat study, read-out: Percentage of viable non-cancerous cells): 98%; viability ([5]; Drugs in commercial formula with sodium pyruvate with calcium & phosphate & magnesium ions, read-out: Percentage of viable non-cancerous cells): 94%; viability ([5]; Drugs in commercial formula with sodium pyruvate without calcium & phosphate & magnesium, read-out: Percentage of viable non-cancerous cells): 68%; viability ([5]; drug alone, read-out: Percentage of viable cells after incubation with drugs): 42% |
| CC(=O)C(=O)O.N [Ammonium, ammonium pyruvate] | 0 | Yes | No | +5.0% | 1 | 1 | 1 | – | – | – | – | 0 | Yes | No | 35.0 | 1 | 1 | – | – | did not reduce nitric oxide | irritation in the nasal cavities compared with the lungs ([1]; evaluated in the nasal cavities): even more irritating; Irritation ([1]; inhaled into the lungs): irritating; Increased in FEV-1% [2, 17]: 0.0%; Irritation [2, 17]: Yes; Percentage Increase in SaO2 over baseline [2, 17]: No; Percentage increase of Nitric Oxide over baseline [2, 17]: 00.0%; Relief of congestion, coughing and lung tightness [2, 17]: 1 |
| N.N.O=C([O-])C1(C(=O)[O-])CCC1.[Pt+2] [Carboplatin] | – | – | – | – | – | – | – | – | – | – | – | – | – | – | – | – | – | 50 | 42 | – | Percentage of viable non-cancerous cells [4, 13]: 97% |
| Bevacizumab | – | – | – | – | – | – | – | – | – | – | – | – | – | – | – | – | – | 27 | 21 | – | Percentage of viable non-cancerous cells [4, 15]: 40% |
| calcium pyruvate | 10.0 | None | no | −18% | 5 | 7 | 7 | 7.0 | 1% | 17.0 | 5 | 1.0 | None | 1% | 17.0 | 5 | 7 | – | – | – | FEV1 [1]: 10%; Irritation ([2]; in vivo): None |
